Measured values reported in patent US9597531B2, “Selective, lipophilic, and long-acting beta agonist monotherapeutic formulations and methods for the cosmetic treatment of adiposity and contour bulging” (NEOTHETICS, INC., priority 2010, dated 2017).
Where two headings read alike, the source gives them in different places.

Key:
[1] = compared with albuterol; cited from earlier work
[2] = Pharmacokinetics and bioavailability in minipigs after SC administration (Example 8); assay type: in vivo, Gottingen minipig; details: for AUC(0-inf) / Cmax / half-life / Tmax: Gottingen, minipig, plasma, 4 ug/kg
Experimental: Plasma concentrations of salmeterol were monitored in a male and a female Gottingen minipig after SC administration of salmeterol xinafoate. SC dose of 4 μg/kg salmeterol xinafoate was administered as a single bolus dose. […] Samples were processed to plasma by centrifugation under refrigeration and stored frozen at approximately −70° C. (±15° C.) until analysis.
Other calculations were done using Microsoft Excel® XP. The bioanalytical and pharmacokinetic data were reported to 3 significant figures.

[3] = minipig, in vivo
[4] = test system: subcutaneous fat thickness; assay: Subcutaneous fat thickness by 2D-ultrasound (Example 7)
inguinal fat pad = assay: Inguinal fat pad weight after SC injection into the rat inguinal fat pad (Example 6); assay type: in vivo, Sprague-Dawley rats
Experimental: Mature male Sprague-Dawley rats weighing approximately 500 g were lightly anesthetized with 4% isoflurane. Test article injections (drug vehicle, different doses of salmeterol xinafoate) were injected SC into the right inguinal fat pad in a volume of 0.4 mL. An equal volume of drug vehicle was injected into the left inguinal fat pad. […] Approximately 24 hours after the last injection, rats were anesthetized, sacrificed and the right and left fat pads harvested and weighed. The change in fat pad weight (Right vs. Left) was calculated and expressed as a percent change in inguinal fat pad weight (% change IFP=(Right side−Left side)×100/Left side).

[5] = SC single site 4 μg/kg, female 2-0623
[6] = SC single site 4 μg/kg, male 1-0771

For `OCc1cc(C(O)CNCCCCCCOCCCCc2ccccc2)ccc1O` (racemic) [Salmeterol, ±2-(hydroxymethyl)-4-[1-hydroxy-2-[6-(4-phenylbutoxy)hexylamino]ethyl]-phenol], the “lipophilicity relative to albuterol” value [1] is given as “at least 10,000 times”, the AUC(0-inf) [2, 5] is given as 1.67 ng·h/mL and the Cmax [2, 5] is given as 0.433 ng/mL. The half-life [2, 5] was 494 min, the Tmax ([2]; SC single site 4 μg/kg, female 2-0623, read-out: Tmax) was 30 min and the AUC(0-inf) [2, 6] was 2.26 ng·h/mL. For the same molecule, the Cmax [2, 6] was 0.564 ng/mL, the half-life [2, 6] was 684 min and the Tmax ([2]; SC single site 4 μg/kg, male 1-0771, read-out: Tmax) was 20 min. The tlast [2, 5] was 24.0 h, the tlast [2, 6] was 24.0 h and the “salmeterol partition ratio (average plasma Cmax subcutaneous / average plasma Cmax intravenous)” value ([3]; both, Gottingen) was 0.1. For the same molecule, the Cmax ([3]; 0.004 ug/kg) was 0 ng/mL and the plasma concentrations observed ([3]; sc) was “Scarce or no plasma concentrations”.

With `OCc1cc(C(O)CNCCCCCCOCCCCc2ccccc2)ccc1O` (stereo not shown) [salmeterol xinafoate] the “evaluation of the injection sites” value ([4]; SC twice per week, 0.05, 0.5 or 5 μg per site) was “did not reveal any adverse reactions”, the “fat thickness (2D-ultrasound)” value ([4]; SC twice per week, FIG. 2) was “dose-related changes in fat thickness” and the “increase of fat thickness” value ([4]; highest dose (5 ng)) was “approximately 3%”. The “reduction of total fat thickness” value ([4]; lowest doses (0.05 and 0.5 ng)) was 7-9%, the “absorption following SC administration” value ([2]; SC 4 μg/kg) was “rapidly absorbed” and the Tmax ([2]; both sexes, SC 4 μg/kg, male and female, read-out: Tmax values) was 20 to 30 min. For the same molecule, the “change in inguinal fat pad weight” value (inguinal fat pad; 0.1, 1, 10 or 100 μg SC into fat pad on 3 consecutive days, right vs left (vehicle) pad, FIG. 1) was “dose-related reduction in fat pad weight” and the “staining and histological evaluation of the tissue” value (inguinal fat pad; inguinal fat pad after SC injection, data not shown) was “reduction in fat cell number and size”.
